The values below come from ChEMBL document CHEMBL4476885, “Multisubstituted 4h-thiazolo[4,5-e][1,4]diazepine-5,8-dione derivative and use thereof” (2017).

The structures appear in SMILES notation.

The assay deals with Mus musculus. As to the kind of experiment: Antiinflammatory activity in iv dosed ICR mouse model of CLP-induced sepsis assessed as increase in survival rate. The class given is functional.

Turning to `COc1ccc(CNc2nc3c(s2)C(=O)N2CCCC2C(=O)N3)cc1` (stereo not drawn), the Activity stood at 40%. With `CCCSc1nc2c(s1)C(=O)N1CCCCC1C(=O)N2` (stereo not drawn) the figure was 40%. With `O=C1Nc2nc(N3CCOCC3)sc2C(=O)N2CCCC12` (stereo not drawn) the figure was 40%; with `CCCCNc1nc2c(s1)C(=O)N(Cc1ccccc1)CC(=O)N2`, 40%; with `COc1ccc(CNc2nc3c(s2)C(=O)N(C)CC(=O)N3Cc2ccccc2)cc1`, 40%. With `CN1C(=O)C2CCCCN2C(=O)c2sc(Sc3ccccc3)nc21` (stereo not drawn) the figure was 60%. With `O=C1C2CCCN2C(=O)c2sc(N3CCCCC3)nc2N1Cc1ccccc1` (stereo not drawn), the Activity amounted to 40%. With `CCN1C(=O)C2CCCN2C(=O)c2sc(NCc3ccc(OC)cc3)nc21` (stereo not drawn) the figure was 40%.
